Source: article PMC9147024 (2022)

Legend:
Experiment in all cases: SPR
[1] = system: AAAGTTT (DNA, hairpin) CCAAAGTTTGCTCTCAAACTTTGG; settings: Na+ 100 mM, 50 mM Tris-HCl, 1 mM EDTA, pH 7.4, 25 °C
[2] = system: AAATTT (DNA, hairpin) CCAAATTTGCTCTCAAATTTGG; settings: Na+ 100 mM, 50 mM Tris-HCl, 1 mM EDTA, pH 7.4, 25 °C
[3] = system: AAAGCTTT (DNA, hairpin) CCAAAGCTTTGCTCTCAAAGCTTTGG; settings: Na+ 100 mM; 50 mM Tris-HCl, 1 mM EDTA, pH 7.4, 25 °C
[4] = system: AATGAAT (DNA, hairpin) CCAATGAATGCTCTCATTCATTGG; settings: Na+ 100 mM; 50 mM Tris-HCl, 1 mM EDTA, pH 7.4, 25 °C
[5] = system: ATAGTAT (DNA, hairpin) CCATAGTATGCTCTCATACTATGG; settings: Na+ 100 mM; 50 mM Tris-HCl, 1 mM EDTA, pH 7.4, 25 °C
[6] = system: ATAGCTAT (DNA, hairpin) CCATAGCTATGCTCTCATAGCTATGG; settings: Na+ 100 mM; 50 mM Tris-HCl, 1 mM EDTA, pH 7.4, 25 °C
[7] = system: AAAGAAA (DNA, hairpin) CCAAAGAAAGCTCTCTTTCTTTGG; settings: Na+ 100 mM, 50 mM Tris-HCl, 1 mM EDTA, pH 7.4, 25 °C
[8] = system: AATAAT (DNA, hairpin) CCAATAATGCTCTCATTATTGG; settings: Na+ 100 mM, 50 mM Tris-HCl, 1 mM EDTA, pH 7.4, 25 °C
[9] = system: AATGCAAT (DNA, hairpin) CCAATGCAATGCTCTCATTGCATTGG; settings: Na+ 100 mM; 50 mM Tris-HCl, 1 mM EDTA, pH 7.4, 25 °C
[10] = system: ATATAT (DNA, hairpin) CCATATATGCTCTCATATATGG; settings: Na+ 100 mM, 50 mM Tris-HCl, 1 mM EDTA, pH 7.4, 25 °C
[11] = system: AAAAAA (DNA, hairpin) CCAAAAAAGCTCTCTTTTTTGG; settings: Na+ 100 mM, 50 mM Tris-HCl, 1 mM EDTA, pH 7.4, 25 °C
[12] = system: AAAGCAAA (DNA, hairpin) CCAAAGCAAAGCTCTCTTTGCTTTGG; settings: Na+ 100 mM, 50 mM Tris-HCl, 1 mM EDTA, pH 7.4, 25 °C

Row | Compound | KD [1] [nM] | binding ([2]; NB [sic]) | KD [3] [nM] | KD [4] [nM] | KD [5] [nM] | KD [6] [nM] | KD [7] [nM] | KD ([1]; text b19 gives 1.8 nM) [nM] | KD [2] [nM] | binding ([8]; NB [sic]) | KD [9] [nM] | binding ([10]; NB [sic]) | binding ([11]; NB [sic]) | binding ([12]; NB [sic]) | KD ([8]; Figure S2 prints 344 nM) [nM] | KD [10] [nM] | KD [11] [nM] | binding ([7]; NB [sic]) | KD [8] [nM] | KD [12] [nM]
1 | c1cc(COc2ccc(C3=NCCN3)cc2)nc(COc2ccc(C3=NCCN3)cc2)c1 | 3.6 | no | 123 | 101 | 227 | 1000 | 43 | – | – | – | – | – | – | – | – | – | – | – | – | –
2 | N=C(N)c1ccc(OCc2cccc(COc3ccc(C(=N)N)cc3)c2)cc1 | 900 | – | – | – | – | – | – | – | 84 | – | – | – | – | – | 117 | 344 | 261 | no | – | –
3 | c1cc(COc2ccc(C3=NCCCN3)cc2)nc(COc2ccc(C3=NCCCN3)cc2)c1 | 1 | – | 27 | 5.7 | 33.6 | 256 | 4.6 | – | 138 | – | 534 | – | – | – | – | 709 | 1111 | – | 141 | 653

Continued, values first:

Row | KD [1] [nM] | binding ([2]; NB [sic]) | KD [3] [nM] | KD [4] [nM] | KD [5] [nM] | KD [6] [nM] | KD [7] [nM] | KD ([1]; text b19 gives 1.8 nM) [nM] | KD [2] [nM] | binding ([8]; NB [sic]) | KD [9] [nM] | binding ([10]; NB [sic]) | binding ([11]; NB [sic]) | binding ([12]; NB [sic]) | KD ([8]; Figure S2 prints 344 nM) [nM] | KD [10] [nM] | KD [11] [nM] | binding ([7]; NB [sic]) | KD [8] [nM] | KD [12] [nM] | Compound
4 | – | – | 58 | 24 | 68 | 719 | 19 | 1.4 | 374 | no | 1176 | no | no | no | – | – | – | – | – | – | N=C(N)c1ccc(OCc2cccc(COc3ccc(C(=N)N)cc3)n2)cc1
5 | 52 | – | 1025 | 689 | – | – | – | – | – | – | – | – | – | – | – | – | – | – | – | – | N=C(N)c1ccc(OCc2cccc(COc3ccc(C(N)=O)cc3)n2)cc1
